Assay results from ChEMBL document CHEMBL1201862, “PubChem BioAssay data set” (2004).
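How tested: cells in 96-well plates exposed to compound for 48 hours at five concentrations. GI50: concentration for 50% inhibition of growth.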 Calls of active or inactive are those of the source. Rule as the data show it: active = GI50 up to about 1.1 µM and inactive = higher. Non-standard residues stand in square brackets, D forms with d. Residues, ends and D or L forms follow the SMILES beside them. ξ: configuration not given here. *: point of attachment. NMeF = CN[C@@H](Cc1ccccc1)C(=O)O; ξNMeV = CNC(C(=O)O)C(C)C; Boc = CC(C)(C)OC(=O)*; OBn = c1ccc(CO*)cc1

Experiments:
Assay in all cases: growth of human tumour cells (NCI), 48 h
A498 = tested on: A498
A549 = tested on: A549
ACHN = tested on: ACHN
CCRF-CEM = tested on: CCRF-CEM
HOP-62 = tested on: HOP-62
HOP-92 = tested on: HOP-92
LOX IMVI = tested on: LOX IMVI
OVCAR-4 = tested on: OVCAR-4
SF-539 = tested on: SF-539
SK-MEL-2 = tested on: SK-MEL-2
TK-10 = tested on: TK-10
U-251 = tested on: U-251
UO-31 = tested on: UO-31
XF498 = tested on: XF498
RXF 393 = tested on: RXF 393
DU-145 = tested on: DU-145
Hs-578T = tested on: Hs-578T
MCF7 = tested on: MCF7
PC-3 = tested on: PC-3
T47D = tested on: T47D

Row | SMILES | GI50 (A498) | GI50 (A549) | GI50 (ACHN) | GI50 (CCRF-CEM) | GI50 (HOP-62) | GI50 (HOP-92) | GI50 (LOX IMVI) | GI50 (OVCAR-4) | GI50 (SF-539) | GI50 (SK-MEL-2) | GI50 (TK-10) | GI50 (U-251) | GI50 (UO-31) | GI50 (XF498) | GI50 (RXF 393) | GI50 (DU-145) | GI50 (Hs-578T) | GI50 (MCF7) | GI50 (PC-3) | GI50 (T47D)
1 | C=CCn1c(=S)sc2c(O)ncnc21 | > 100 µM (inactive) | > 100 µM (inactive) | > 100 µM (inactive) | > 100 µM (inactive) | > 100 µM (inactive) | 94 µM (inactive) | > 100 µM (inactive) | > 100 µM (inactive) | > 100 µM (inactive) | > 100 µM (inactive) | > 100 µM (inactive) | 48.8 µM (inactive) | > 100 µM (inactive) | > 100 µM (inactive) | – | – | – | – | – | –
2 | CC(C)C(C(=O)N1CCC[C@@H]1C(=O)OCc1ccccc1)N(C)C(=O)C(C(C)C)N(C)C(=O)[C@H](Cc1ccccc1)N(C)C(=O)[C@H](NC(=O)OC(C)(C)C)C(C)C (some centres not stated) (Boc-[dV][NMeF][ξNMeV][ξNMeV][dP]-OBn) | > 100 µM (inactive) | 6.55 µM (inactive) | 16.7 µM (inactive) | > 54.5 µM (inactive) | > 100 µM (inactive) | 68.4 µM (inactive) | > 60.3 µM (inactive) | > 54.2 µM (inactive) | > 100 µM (inactive) | > 100 µM (inactive) | > 100 µM (inactive) | > 100 µM (inactive) | > 29.2 µM (inactive) | > 68.5 µM (inactive) | > 100 µM (inactive) | – | – | – | – | –
3 | COC1=C(NC(C)=O)C(=O)c2nc3n(c2C1=O)CCC3 | 23.6 µM (inactive) | 27.3 µM (inactive) | 19.9 µM (inactive) | 3.78 µM (inactive) | 20.7 µM (inactive) | 13.2 µM (inactive) | 16.1 µM (inactive) | 16.7 µM (inactive) | 18.6 µM (inactive) | 17.7 µM (inactive) | 30.3 µM (inactive) | 23.8 µM (inactive) | 24.9 µM (inactive) | 19.1 µM (inactive) | 17.7 µM (inactive) | 20.8 µM (inactive) | 30.8 µM (inactive) | 23.1 µM (inactive) | 34.8 µM (inactive) | 34.3 µM (inactive)
4 | COC(=O)C(Cc1nc2ccccc2nc1C)/C(=N\NC(N)=O)C(=O)Nc1cccc([N+](=O)[O-])c1 (configuration not stated) | > 100 µM (inactive) | > 100 µM (inactive) | > 100 µM (inactive) | 29.6 µM (inactive) | > 100 µM (inactive) | – | > 100 µM (inactive) | > 100 µM (inactive) | 74.3 µM (inactive) | > 100 µM (inactive) | > 100 µM (inactive) | 37.6 µM (inactive) | > 100 µM (inactive) | > 100 µM (inactive) | 36.8 µM (inactive) | – | – | – | – | –
5 | C1COCCN1.S=C(S)N1CCOCC1 | 24.9 µM (inactive) | 8.24 µM (inactive) | > 100 µM (inactive) | 0.526 µM (active) | 92.3 µM (inactive) | 30 µM (inactive) | 18.3 µM (inactive) | 6.9 µM (inactive) | 43.1 µM (inactive) | 36.4 µM (inactive) | > 100 µM (inactive) | 4.98 µM (inactive) | > 100 µM (inactive) | 1.92 µM (inactive) | 2.43 µM (inactive) | > 100 µM (inactive) | > 100 µM (inactive) | 29.4 µM (inactive) | > 100 µM (inactive) | > 100 µM (inactive)
6 | COCOCC[C@@H]1CC=CC(NC(=O)OCc2ccccc2)C1/C=C/C(=O)CCC1OCCO1 (some centres not stated) | 71.1 µM (inactive) | 75.5 µM (inactive) | 36.6 µM (inactive) | 17.3 µM (inactive) | > 79.8 µM (inactive) | > 54.8 µM (inactive) | 18.5 µM (inactive) | 29 µM (inactive) | 25.6 µM (inactive) | 25.4 µM (inactive) | 46.8 µM (inactive) | 25.7 µM (inactive) | 46.6 µM (inactive) | 34.4 µM (inactive) | 29.7 µM (inactive) | – | – | – | – | –
7 | CCCC(N)C(=O)c1ccccc1 (configuration not stated) | > 100 µM (inactive) | > 100 µM (inactive) | > 100 µM (inactive) | > 100 µM (inactive) | > 100 µM (inactive) | > 100 µM (inactive) | > 100 µM (inactive) | > 100 µM (inactive) | > 100 µM (inactive) | > 100 µM (inactive) | > 100 µM (inactive) | > 100 µM (inactive) | > 100 µM (inactive) | > 100 µM (inactive) | > 100 µM (inactive) | – | – | – | – | –
8 | CN(c1nc(=[N+](C)C)ss1)C1CCCCC1 | > 100 µM (inactive) | 38.3 µM (inactive) | > 100 µM (inactive) | 6.92 µM (inactive) | > 100 µM (inactive) | > 100 µM (inactive) | > 100 µM (inactive) | > 100 µM (inactive) | > 100 µM (inactive) | > 100 µM (inactive) | > 100 µM (inactive) | 33.4 µM (inactive) | > 100 µM (inactive) | > 100 µM (inactive) | > 100 µM (inactive) | – | – | – | – | –
9 | COc1ccc2nc3cc(Cl)ccc3c(Sc3ccc([N+](=O)[O-])cc3C)c2c1 | > 100 µM (inactive) | > 100 µM (inactive) | > 100 µM (inactive) | > 100 µM (inactive) | > 100 µM (inactive) | > 100 µM (inactive) | > 100 µM (inactive) | > 100 µM (inactive) | > 100 µM (inactive) | > 100 µM (inactive) | > 100 µM (inactive) | > 100 µM (inactive) | > 100 µM (inactive) | > 100 µM (inactive) | > 100 µM (inactive) | – | – | – | – | –
10 | CCOC(=O)/C(=C/c1cccc(OC)c1)N(CC)CC | > 100 µM (inactive) | > 100 µM (inactive) | > 100 µM (inactive) | > 100 µM (inactive) | > 100 µM (inactive) | > 100 µM (inactive) | > 100 µM (inactive) | > 100 µM (inactive) | > 100 µM (inactive) | > 100 µM (inactive) | > 100 µM (inactive) | > 100 µM (inactive) | > 100 µM (inactive) | > 100 µM (inactive) | – | – | – | – | – | –
